Some test systems named below: SF-295; NCI-H226; CCRF-CEM; EKVX; DU-145; HCT-116; OVCAR-8; OVCAR-4; NCI-H460; OVCAR-5; SNB-19; UACC-62; HOP-92; HT-29; HOP-62; SK-MEL-28; Malme-3M; SR; NCI-H23.
Assay in all cases: NCI-60 cell line screen, 48 h

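A five-concentration, 48-hour dose response in 96-well plates underlies each endpoint, interpolated linearly between surrounding concentrations. GI50 = concentration required for 50% inhibition of growth.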 Calls of active or inactive are those of the source. Rule as the data show it: active = GI50 up to about 1.1 µM and inactive = higher. Where a SMILES comes first, the peptide text is derived from it. [ ]: non-standard residue; d: D form. The star is where a group is joined. Bn2Val = CC(C)[C@@H](C(=O)*)N(Cc1ccccc1)Cc1ccccc1; NH(3,4-diMeO-benzyl) = COc1ccc(CN*)cc1OC; NMeV = CN[C@H](C(=O)O)C(C)C

On to `O=C(OC1C2OC(=O)c3cc(O)c(O)c(O)c3Oc3cc4c(c(O)c3O)-c3c(cc(O)c(O)c3O)C(=O)OCC3OC(O)C(OC(=O)c5cc(O)c(O)c(O)c5Oc5cc6c(c(O)c5O)-c5c(cc(O)c(O)c5O)C(=O)OC1C(COC6=O)OC2O)C(OC(=O)c1cc(O)c(O)c(O)c1)C3OC4=O)c1cc(O)c(O)c(O)c1` (stereo not given), for which the GI50 in the test on SF-295 is 14.7 µM (inactive); in the test with NCI-H226, 22.4 µM (inactive); in the test with CCRF-CEM it was 3.61 µM (inactive); in the test with EKVX it was 12.5 µM (inactive); with DU-145, 41 µM (inactive); in the test with HCT-116, 16.4 µM (inactive). Besides, the GI50 in the test with OVCAR-8 was 27 µM (inactive); in the test on OVCAR-4, 17.8 µM (inactive); in the test on NCI-H460, 3.52 µM (inactive); in the test with OVCAR-5, 40.1 µM (inactive); in the test on SNB-19 it was 17.6 µM (inactive); in the test with UACC-62, 28.4 µM (inactive). Besides, the GI50 in the test on HOP-92 is 19 µM (inactive); with HT-29, 17.9 µM (inactive); in the test with HOP-62, 23.4 µM (inactive); in the test with SK-MEL-28, 76.7 µM (inactive); with Malme-3M it was > 100 µM (inactive); in the test with SR, 4.61 µM (inactive). For the same compound, in the test with NCI-H23, the GI50 was 24.6 µM (inactive).

For `CN(C)/C=N/[C@@H](C(=O)O)c1ccccc1`, the GI50 in the test with SF-295, in the test with NCI-H226, with CCRF-CEM, in the test with EKVX, in the test on DU-145 and in the test with HCT-116 was > 100 µM (inactive) throughout. Moreover, the GI50 in the test with OVCAR-8, in the test on OVCAR-4, with NCI-H460, in the test with OVCAR-5, in the test with SNB-19 and in the test with UACC-62 was > 100 µM (inactive) throughout. Besides, the GI50 in the test on HOP-92, in the test on HT-29, in the test on HOP-62, in the test on SK-MEL-28, in the test with Malme-3M and in the test on SR was > 100 µM (inactive) each time. For the same compound, the GI50 in the test with NCI-H23 is > 100 µM (inactive).

Regarding `Cc1cc(C)c(S(=O)(=O)N(CCCN)OCCON(CCCN)S(=O)(=O)c2c(C)cc(C)cc2C)c(C)c1`, the GI50 in the test with SF-295 was 20.2 µM (inactive); in the test on NCI-H226, 4.44 µM (inactive); in the test with CCRF-CEM, 2.71 µM (inactive); in the test on EKVX, 5.24 µM (inactive); in the test with DU-145 it was 5.68 µM (inactive); in the test with HCT-116, 2.24 µM (inactive). In addition, the GI50 with OVCAR-8 was 12.6 µM (inactive); with OVCAR-4, 3.3 µM (inactive); in the test on NCI-H460, 2.67 µM (inactive); with OVCAR-5, 2.24 µM (inactive); in the test with SNB-19, 2.08 µM (inactive); in the test on UACC-62 it was 4.19 µM (inactive). In addition, the GI50 with HOP-92 was 6.24 µM (inactive); with HT-29, 10 µM (inactive); in the test on HOP-62, 3.01 µM (inactive); in the test with SK-MEL-28, 5.26 µM (inactive); in the test on Malme-3M it was 1.93 µM (inactive); in the test with SR, 3.12 µM (inactive). In addition, the GI50 with NCI-H23 was 2.59 µM (inactive).

For `Cc1ccc2c(c1)c1ccc3c(c1n2C)C(=O)C=CC3=O`, the GI50 with SF-295 is > 10 µM (inactive); in the test on NCI-H226, > 6.85 µM (inactive); in the test with CCRF-CEM, 0.284 µM (active); in the test with EKVX, > 4.85 µM (inactive); with DU-145, 7.33 µM (inactive); in the test with HCT-116, 1.51 µM (inactive). The GI50 in the test with OVCAR-8 was 2.18 µM (inactive); in the test on OVCAR-4 it was 2.32 µM (inactive); in the test on NCI-H460, > 10 µM (inactive); in the test with OVCAR-5, > 10 µM (inactive); in the test on SNB-19, > 10 µM (inactive); with UACC-62, 3.01 µM (inactive). In addition, the GI50 with HOP-92 is 2.03 µM (inactive); in the test with HT-29, > 10 µM (inactive); in the test on HOP-62 it was > 10 µM (inactive); with SK-MEL-28 it was 2.18 µM (inactive); in the test with Malme-3M it was 2 µM (inactive); with SR it was 0.27 µM (active). In addition, the GI50 with NCI-H23 is 2.62 µM (inactive).

As for `CC(NC1=NCCO1)c1cccc([N+](=O)[O-])c1` (stereo not given), the GI50 in the test with SF-295, in the test on NCI-H226, in the test with CCRF-CEM, in the test on EKVX, with DU-145 and with HCT-116 was > 100 µM (inactive) in each case. In addition, the GI50 with OVCAR-8, in the test on OVCAR-4, in the test on NCI-H460, in the test on OVCAR-5, with SNB-19 and in the test on UACC-62 was > 100 µM (inactive) throughout. The GI50 was 30 µM (inactive) with HOP-92; > 100 µM (inactive) with HT-29; > 100 µM (inactive) with HOP-62; > 100 µM (inactive) in the test with SK-MEL-28; > 100 µM (inactive) in the test with Malme-3M; > 100 µM (inactive) in the test on SR. Moreover, in the test on NCI-H23, the GI50 was > 100 µM (inactive).

As for `Cc1ccc(NC(=O)CSc2nc(C)nc3c2sc(=S)n3-c2ccccc2)cc1`, the GI50 in the test with SF-295 is 5 µM (inactive); in the test with NCI-H226, 3.33 µM (inactive); in the test with CCRF-CEM, 9.23 µM (inactive); in the test on EKVX, 5.08 µM (inactive); with DU-145, > 10 µM (inactive); in the test on HCT-116, 4.24 µM (inactive). The GI50 in the test with OVCAR-8 was 6.76 µM (inactive); in the test on OVCAR-4 it was 2.2 µM (inactive); in the test on NCI-H460, 5.48 µM (inactive); in the test with OVCAR-5 it was > 10 µM (inactive); in the test with SNB-19, 5.37 µM (inactive); with UACC-62, > 10 µM (inactive). Besides, the GI50 in the test with HOP-92 is 2.71 µM (inactive); with HT-29, 7.36 µM (inactive); in the test on HOP-62, 2.29 µM (inactive); in the test on SK-MEL-28, > 10 µM (inactive); with Malme-3M, 7.8 µM (inactive); in the test on SR, 9.89 µM (inactive). In the test on NCI-H23, the GI50 was > 10 µM (inactive).

Take `NC(=O)N/N=C(/CC1C(=O)Oc2ccccc21)c1ccccc1O` (stereo not given): the GI50 is 42.5 µM (inactive) in the test on SF-295; 24.4 µM (inactive) with NCI-H226; 22.4 µM (inactive) in the test on CCRF-CEM; 87.5 µM (inactive) in the test with EKVX; 50.1 µM (inactive) in the test with DU-145; 29.6 µM (inactive) in the test with HCT-116. The GI50 in the test on OVCAR-8 was 28.6 µM (inactive); with OVCAR-4 it was 41.7 µM (inactive); in the test on NCI-H460 it was 39.4 µM (inactive); in the test on OVCAR-5, > 100 µM (inactive); with SNB-19, 60 µM (inactive); in the test on UACC-62, 19.1 µM (inactive). The GI50 in the test on HOP-92 was 29.8 µM (inactive); in the test with HT-29, 69 µM (inactive); in the test on HOP-62, 29 µM (inactive); with SK-MEL-28, 48.3 µM (inactive); in the test with Malme-3M, > 100 µM (inactive); in the test on SR, 18.9 µM (inactive). Also, the GI50 in the test with NCI-H23 was 31.5 µM (inactive).

Regarding `COC(=N)CCCl`, the GI50 in the test on SF-295, with NCI-H226, in the test with CCRF-CEM, in the test with EKVX, in the test with DU-145 and with HCT-116 was > 100 µM (inactive) each time. Also, the GI50 in the test with OVCAR-8, in the test on OVCAR-4, with NCI-H460, in the test with OVCAR-5, in the test with SNB-19 and in the test on UACC-62 was > 100 µM (inactive) throughout. Moreover, the GI50 in the test with HOP-92, in the test with HT-29, in the test with HOP-62, in the test with SK-MEL-28, in the test with Malme-3M and in the test with SR was > 100 µM (inactive) throughout. Besides, the GI50 in the test with NCI-H23 is > 100 µM (inactive).

With `O=C(O)c1ccc(NC(c2ccccc2)c2ccc3cccnc3c2O)cc1` (stereo not given), the GI50 in the test on SF-295 is 4 µM (inactive); in the test on NCI-H226, 3.88 µM (inactive); with CCRF-CEM it was 1.72 µM (inactive); with EKVX, 7.85 µM (inactive); with DU-145, 17.7 µM (inactive); with HCT-116, 3.67 µM (inactive). In addition, the GI50 with OVCAR-8 was 3.85 µM (inactive); in the test on OVCAR-4, 4.63 µM (inactive); in the test with NCI-H460, 4.09 µM (inactive); in the test on OVCAR-5, 16.8 µM (inactive); in the test on SNB-19, 6.7 µM (inactive); in the test on UACC-62, 6.58 µM (inactive). The GI50 in the test with HOP-92 was 20.2 µM (inactive); in the test on HT-29 it was 5.15 µM (inactive); with HOP-62 it was 6.15 µM (inactive); in the test with SK-MEL-28 it was 11.2 µM (inactive); in the test with Malme-3M, 29 µM (inactive); with SR, 3.32 µM (inactive). In addition, the GI50 with NCI-H23 is 14.7 µM (inactive).

As for `COc1ccc(CNC(=O)[C@@H]2CCCN2C(=O)[C@@H]2CCCN2C(=O)[C@H](C(C)C)N(C)C(=O)[C@@H](NC(=O)[C@H](C(C)C)N(Cc2ccccc2)Cc2ccccc2)C(C)C)cc1OC` (Bn2Val-V[NMeV]PP-{NH(3,4-diMeO-benzyl)}), the GI50 with SF-295 was 15.1 µM (inactive); in the test on NCI-H226, 17.3 µM (inactive); with CCRF-CEM, 4.23 µM (inactive); in the test on EKVX, 13.4 µM (inactive); in the test with DU-145, 14.8 µM (inactive); with HCT-116, 14.4 µM (inactive). For the same compound, the GI50 is 14.5 µM (inactive) in the test with OVCAR-8; 18 µM (inactive) with OVCAR-4; 13.5 µM (inactive) in the test with NCI-H460; 18.5 µM (inactive) in the test with OVCAR-5; 15.9 µM (inactive) with SNB-19; 14.5 µM (inactive) with UACC-62. Also, the GI50 is 14.9 µM (inactive) in the test on HOP-92; 8.3 µM (inactive) in the test with HT-29; 15.6 µM (inactive) with HOP-62; 16.9 µM (inactive) in the test with SK-MEL-28; 25.2 µM (inactive) in the test with Malme-3M; 4.54 µM (inactive) in the test with SR. For the same compound, the GI50 in the test on NCI-H23 is 18.9 µM (inactive).

The values above are taken from ChEMBL document CHEMBL1201862, “PubChem BioAssay data set” (2004).
